Results: patent US7758903B2, “Cytokine modulators and related methods of use” (Access Business Group International LLC, priority 2003, dated 2010)
≈ marks a conversion by molar mass, not a printed value. Like-named read-outs stand apart in the source and are kept apart here. Values belong to the compound of their own block, whether it stands above or below them.

Columns and labels:
[1] = tested on: IL-1 secretion, THP-1 cells; assay: LPS-stimulated IL-1 secretion by THP-1 cells, IL-1 ELISA of supernatant; assay type: cell-based, human; settings: IL-1 in supernatant, THP-1 cells pre-treated 4 hours, LPS 100 nanograms/ml 16 hours; for EC50: Homo sapiens, read-out: EC 50 in ug/ml (50% Effective Dose in vitro)
Protocol: For this evaluation, white blood cells were dosed with varying concentrations of the ingredients. An inflammatory stimulus, lipopolysaccharide (LPS), was then added to the ingredient-plus-cell culture, as well as untreated control samples of white blood cells. The production of the IL-1 cytokine of both the ingredient-treated cells and the untreated cells was compared to extrapolate the concentration of the ingredient that causes a 50% change in the concentration of IL-1 produced by the cells.
To perform the evaluation of inhibiting interleukin synthesis of this example, human white blood cells, specifically THP-1 cells obtained from ATCC of Manassas, Va., were grown under conditions recommended by ATCC in a humidified 37° C. incubator, which was supplied with 5% carbon dioxide. To test the IL-1 inhibitory potential of various compounds, multiple groups of THP-1 cells were plated in 96 well plates. […] With these cell samples plated, they were then dosed.
In dosing, each of the ingredients was administered to the plated THP-1 cells in varying doses, specifically, 100 ug/ml, 10 ug/ml, 1 ug/ml and 0 ug/ml. […] The THP-1 cells, now dosed with the desired ingredients, were returned to the incubator and incubated for 4 hours under the same conditions.
Thereafter, a known inflammatory stimulator, lipopolysaccharide (LPS) was added to each well plate to a final concentration of 100 nanograms/ml. The LPS treated cultures were returned to the incubator for an additional 16 hours. […]
Thereafter, the liquids from each of the wells were removed and the coated plate was washed 3 times in a wash buffer. […] The reaction of the substrate solution (TMB) and the horseradish peroxidase conjugated to the anti-IL-1 antibody produces a colored product with specific spectral absorbance at wavelength of 450 nm.
The calibration standard samples were subjected to the same protocol as the supernatant samples to determine the IL-1 present in those calibration samples. […] The optical density of the standard calibration samples were then plotted to determine a standardized IL-1 absorbance calibration curve.

[2] = tested on: IL-1 secretion, THP-1 cells; assay: Synergy or interference of other ingredients with optional primary ingredients in inhibiting LPS-stimulated IL-1 secretion; assay type: cell-based, human; set-up: key: a “+” indicates interference or synergy, respectively as shown; a “−” indicates no interference or no synergy
Protocol: Specifically, the release of IL-1 from the THP-1 cells after exposure to lipopolysaccharide (LPS) with or without pre-treatment in varying doses of the other ingredients, or a combination of those other ingredients with optional primary ingredients, was measured to evaluate the effects of the other ingredients on monocyte IL-1α secretion.
The other ingredients tested were: blackberry extract, blueberry extract, cranberry extract, rosemary extract, clove extract and resveratrol.
In Table IV, a “−” indicates no interference or no synergy, and a “+” indicates interference or synergy, respectively as shown.

[3] = tested on: IL-1/IL-6 Stimulated CRP Secretion, hepatocytes; assay: IL-1/IL-6 stimulated CRP secretion by primary hepatocytes, CRP ELISA of supernatant; assay type: cell-based; settings: Homo sapiens, Hepatocyte
Protocol: Hepatocytes' response to IL-1 expression levels was evaluated by measuring CRP in the culture supernatant after exposure of the hepatocytes to IL-1 and IL-6 with or without pre-treatment with varying doses of the other ingredients.
The IL-1 response effects were evaluated in hepatocytes by measuring the secretion of CRP when the hepatocytes were exposed to IL-1α and IL-6 with or without pre-treatment with varying doses of the other ingredients. […] Thus, by measuring CRP secreted by the hepatocytes, the degree of cells' response to IL-1 and/or IL-6 is able to be determined.
To perform the evaluation of this example, human primarily isolated hepatocyte cells, obtained from In vitro Technology of Baltimore, Md., were restored under the conditions recommended by In vitro Technology in a humidified 37° C. incubator, which was supplied with 5% carbon dioxide. To test the CRP response potential of various compounds, multiple groups of hepatocytes were plated in 96 well plates. Specifically, 1×10^4 cells were plated in hepatocyte media supplement with 10% fetal bovine serum which were then exposed with varying doses, specifically, 100 ug/ml, 10 ug/ml, 1 ug/ml and 0 ug/ml of test ingredients. […]

Structure (SMILES): O=C(O[C@@H]1Cc2c(O)cc(O)cc2O[C@@H]1c1cc(O)c(O)c(O)c1)c1cc(O)c(O)c(O)c1 [Epigallocatechin gallate]
EC 50 in ug/ml (50% Effective Dose in vitro) [1]: <1 µg/mL

EC50 [1]: 10 µg/mL (≈ 51.5 µM)
Structure (SMILES): COc1cc(/C=C/C(=O)O)ccc1O [Ferulic acid]

EC50 [1]: < 1 µg/mL
Structure (SMILES): CC(C)Oc1ccc2c(=O)c(-c3ccccc3)coc2c1 [Ipriflavone, reference compound]

Structure (SMILES): Oc1ccc(C=Cc2cc(O)cc(O)c2)cc1 [Resveratrol]
Interference +/− ([2]; with Artichoke): −
Synergy +/− ([2]; with Artichoke): −
Interference +/− ([2]; with Nettle Root): −
Synergy +/− ([2]; with Nettle Root): −
Interference +/− ([2]; with Olive Extract): −
Synergy +/− ([2]; with Olive Extract): −
Interference +/− ([2]; with Rosehips): −
Synergy +/− ([2]; with Rosehips): −
EC50 ([3]; IL-1/IL-6 stimulated CRP secretion, hepatocytes, Example 2, read-out: CRP EC 50 in ug/ml (50% Effective Dose in vitro)): 1 to 10 µg/mL (≈ 4.38 to 43.8 µM)
EC50 ([3]; hepatocytes activated via IL-1 and IL-6 (1 ng/ml each), read-out: EC50 of CRP secretion inhibition): 1 to 10 µg/mL (≈ 4.38 to 43.8 µM)
